# Legend:
# Estrogen receptor = target: T1, Estrogen receptor (Homo sapiens, UniProt P03372); assay: Transcriptional agonist activity in Chinese hamster ovary cells expressing human Estrogen Receptor alpha; type: functional, cell-based
# T1 sequence (P03372 whole entry): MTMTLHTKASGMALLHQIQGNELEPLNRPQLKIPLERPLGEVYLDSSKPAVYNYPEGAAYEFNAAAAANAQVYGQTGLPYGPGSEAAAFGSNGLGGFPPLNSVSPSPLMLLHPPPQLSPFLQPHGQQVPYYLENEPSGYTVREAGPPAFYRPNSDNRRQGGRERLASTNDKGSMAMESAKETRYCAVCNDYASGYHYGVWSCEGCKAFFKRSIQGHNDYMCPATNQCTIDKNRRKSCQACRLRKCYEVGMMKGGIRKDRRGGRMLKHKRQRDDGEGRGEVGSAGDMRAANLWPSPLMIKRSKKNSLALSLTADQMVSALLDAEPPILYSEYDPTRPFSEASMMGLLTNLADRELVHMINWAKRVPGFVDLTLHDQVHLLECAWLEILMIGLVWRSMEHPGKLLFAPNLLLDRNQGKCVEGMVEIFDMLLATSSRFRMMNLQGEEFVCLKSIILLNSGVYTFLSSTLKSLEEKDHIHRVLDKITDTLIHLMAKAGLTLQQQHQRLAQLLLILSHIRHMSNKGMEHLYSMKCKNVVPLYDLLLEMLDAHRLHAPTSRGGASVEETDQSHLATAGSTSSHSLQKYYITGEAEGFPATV
# [1] = target: T2, Estrogen receptor (Homo sapiens) (UniProt P03372); assay: Percent change in 17-beta-estradiol mediated transcriptional activation in CHO cells expressing human estrogen receptor alpha at 10e-6 M; type: functional, cell-based
# T2 sequence (whole entry): T1 sequence (P03372 whole entry)
# [2] = target: T2, Estrogen receptor (Homo sapiens); assay: Relative Binding Affinity for human estrogen receptor alpha expressed in CHO cells compared to Diethylstilbestrol Dimethyl Ether; type: cell-based
# [3] = target: T2, Estrogen receptor (Homo sapiens); settings: CHO
# [4] = target: T2, Estrogen receptor (Homo sapiens); assay: Relative binding affinity for human estrogen receptor alpha expressed in CHO cells compared to Diethylstilbestrol Methyl Ether; type: cell-based
Structure (SMILES),EC50 (Estrogen receptor),also measured
Oc1ccc(-c2cccc(-c3ccc(O)cc3)c2)cc1,800 nM,
COc1ccc(C2Oc3ccc(O)cc3C(=O)C2C)cc1 (configuration not stated),> 10000 nM,HTS data [1]: 67
CC/C(=C(/CC)c1ccc(OC)cc1)c1ccc(OC)cc1,,RBA data [2]: -1.25
COc1ccc2c(c1)CC[C@@H]1[C@@H]2CC[C@]2(C)[C@@H](O)CC[C@@H]12,,HTS data [3]: 76
Oc1ccc(-c2cc(-c3ccc(O)cc3)cc(-c3ccc(O)cc3)c2)cc1,80 nM,
CC/C(=C(/CC)c1ccc(OC)cc1)c1ccc(O)cc1,,RBA data [4]: 1.31
Oc1ccc(-c2ccc(-c3ccc(O)cc3)cc2)cc1,1200 nM,
COc1ccc2c(c1)CC[C@@H]1[C@@H]2CC[C@]2(C)[C@@H](OC)CC[C@@H]12,,HTS data [3]: 0
CC1C(=O)c2cc(O)ccc2OC1c1ccc(O)cc1 (configuration not stated),4 nM,
COc1ccc(-c2cccc(-c3ccc(OC)cc3)c2)cc1,> 10000 nM,HTS data [1]: 7

# — ChEMBL document CHEMBL1145862, “Identification of "latent hits" in compound screening collections” (J Med Chem, 2003)
